Results from patent publication US8748097B1, “Identification of agents for treating calcium disorders and uses thereof” (President and Fellows of Harvard College, priority 2011, dated 2014).
Where two headings read alike, the source gives them in different places.

Legend:
NFATc1 mRNA = assay: A23187-induced NFATc1 expression; format: cell-based; settings: C2orf28 deficient cells vs control; 1 μM A23187, 12 hours
Procedure: FIG. 13. A23187-induced NFATc1 Expression. Control and C2orf28 deficient cells were treated for 12 hours with 1 μM A23187. After 12 hours, relative levels of NFATc1 mRNA expression were measured.
Total RNA was isolated and reverse-transcription was performed from cells grown in the indicated conditions. The resulting cDNA was diluted in DNase-free water (1:20) followed by quantification by real-time PCR. Data is expressed as the ratio between the expression of the target gene to the housekeeping gene, 18s. Each treated sample was normalized to the level of the vehicle controls of the same cell type. The following primers were used for quantitative real-time PCR: […]

HEK-293T = HEK-293T with C2orf28 depletion using RNAi; data not shown
RAW 264.7 macrophages [1] = tested on: RAW 264.7 macrophages
Procedure: (§1) GFP positive cells were treated with a shRNA designed to target and disrupt GFP expression (transfection control), while wild-type cells were treated with one of two shRNA constructs (TBONE—1 and TBONE—2) designed to target and disrupt expression of Apr3.

[2] = tested on: RANKL mRNA in ST-2 osteoblast cells
Procedure: as §1

KBM7 cells = tested on: KBM7 cells
Procedure: (§2) All measurements were performed in quadruplicate.
as §2

MC3T3-e1 cells = tested on: MC3T3-e1 cells
Procedure: FIG. 15. Basal and NBP-potentiated osteoblastic gene expression. shNA-mediated TBONE knockdown (TBONE—1 and TBONE—2) and transfection control (GFP) cells were treated with 10 nM Alendronte or vehicle and analyzed using real-time RT-PCR for mRNA expression of (A) TBONE, (B) osteocalcin (OC), and (C) bone sialoprotein (BSP).
Since NBPs and calcium potentially play an important role in regulating osteoblast function, studies were performed to evaluate the role of TBONE in osteoblast differentiation. For the experiment, wild-type and GFP positive MC3T3-e1 cells were transiently transfected with small-hairpin RNA (shRNA). GFP positive cells were treated with a shRNA designed to target and disrupt GFP expression (transfection control), while wild-type cells were treated with one of two shRNA constructs (TBONE—1 and TBONE—2) designed to target and disrupt expression of Apr3. The cells were then subjected to conditions for promoting osteoblast differentiation, 50 μg/ml ascorbic acid and 10 mM B-glycerophosphate for 2 weeks, and analyzed for extracellular calcium deposition using Alizarin Red or phosphate deposition using the Von Kossa method.
(§3) Briefly, GFP control and TBONE knockdown cells were generated and subjected to differentiation as described above. Following the two week incubation, cells were treated with 10 nM Alendronate (exemplary NBP) or vehicle and analyzed by real-time RT-PCR using TBONE, OC and BSP gene specific oligonucleotide primers (FIG. 15). Alkaline phosphatase activity was measured using a colorimetric based assay designed to indicate ALPL activity by changing color following the dephosphorylation of p-nitrophenyl phosphate (pNPP) (FIG. 16).

[3] = target: HA tagged C2orf28 variant 2 (Homo sapiens, UniProt Q6UW56); settings: MC3T3-E1 pre-osteoblasts expressing HA tagged C2orf28 variant 2; 7504 fluorophore conjugated Alendronate
Procedure: Sub-cellular Localization. […] Cells were processed in an immunofluorescence assay.
Following incubation, the cells were washed, and processed in an immunofluorescence assay to detect HA and Alendronate, along with DAPI to visualize DNA content.
25,000-100,000 cells were plated on fibronectin-coated glass coverslips, fixed with 4% paraformaldehyde, and permeabilized with 0.2% Triton X-100. Permeabilized cells were blocked in 0.25% BSA PBS, incubated with primary antibody in blocking buffer overnight at 4° C. and subsequently incubated with secondary antibodies (diluted in blocking buffer 1:1000) for one hour at room temperature. 2-4×PBS washes were used in between all preceding steps. The coverslips were mounted on glass slides using Vectashield containing DAPI (Vector Laboratories) and imaged with 63× objective using epifluorescence microscopy.

HDJ-2 prenylation = settings: indicated dose of Alendronate, 72 hours
Procedure: (§4) FIG. 8. Effect of Nitrogenous Bisphosphonates on Prenylation. Cells containing (WT) or lacking C2orf28 (C2orf28_GT2) were treated with Alendronate at the indicated dose ((−) indicates no Alendronate). After 72 hours the cells were analyzed by immunoblotting for the indicated proteins.
(§5) Therefore, to determine whether C2orf28 is involved with NBPs mediated protein prenylation, the inventors' monitored the prenylation of several known prenylated proteins including the heat shock protein DnaJ (Hsp40) homolog, HDJ-2, and the Ras family GTPase, Rapla. Cells containing or lacking C2orf28 were treated with the indicated dose of Alendronate for 72 hours then lysed and analyzed by immunoblotting for the indicated proteins.
(§6) Cells were pelleted by centrifugation at 9,000 rpm for 30 seconds, rinsed once with ice-cold PBS and lysed with Triton-X 100 containing lysis buffer (40 mM HEPES [pH 7.4], 2 mM EDTA, 150 mM NaCl, 50 mM NaF, 1% Triton-X 100, and one tablet of EDTA-free protease inhibitors [Roche] per 25 ml). The soluble fractions of cell lysates were isolated by centrifugation at 13,000 rpm for 10 minutes in a microcentrifuge. Lysate protein concentrations were normalized by Bradford assay (Bio-Rad). Proteins were then denatured by the addition of sample buffer and by boiling for 5 minutes, resolved using 4%-20% SDS-PAGE (Invitrogen), and analyzed by immunoblotting.

Rapla prenylation = settings: indicated dose of Alendronate, 72 hours
Procedure: as §4, §5, §6

[4] = tested on: cells containing or lacking C2orf28; settings: C2orf28 deficient vs C2orf28-complemented cells; 75 μM fluorophore conjugated H^3-labeled Alendronate plus 60 μM cold, 60 hours
Procedure: The volume was made up to 1 ml with distilled water and the solution incubated for 2 hours at room temperature with mixing.

[5] = tested on: alkaline phosphatase (ALPL); settings: TBONE deficient cells vs GFP control; 10 nM Alendronate
Procedure: as §3

RAW 264.7 macrophages [6] = assay: RANKL-mediated induction of TRAP activity in RAW 264.7 macrophages; format: cell-based; settings: TBONE knockdown RAW 264.7 macrophages; 50 ng/ml RANKL, 5 days
From the text: In order to determine if TBONE plays a role in directly regulating osteoclastogensis, TBONE was knockdown in macrophages to evaluate its potential effect on RANKL stimulated differentiation; by monitoring lineage specific surface marker expression of the calcitonin receptor (CALCR), a well-established indicator of osteoclast activity (J. Lam et al., (2000) J Clin Invest: 106, 1481; D. L. Lacey et al., (1998), Cell: 93, 165; and C. Minkin, (1982), Calcif Tissue Int: 34, 285; all of which are hereby incorporated by reference). Briefly, wild-type and GFP positive RAW 264.7 macrophages cells were transiently transfected with shRNA to knockdown GFP and Arp3 as described above. The cells were treated with 50 ng/ml RANKL for 5 days. […] Second, cells were analyzed for tartrate-resistant acid phosphatase (TRAP) activity.

[7] = TBONE deficient cells vs GFP control, 10 nM Alendronate
[8] = C2orf28 deficient cells (C2orf28_GT2)

Chain of HA tagged C2orf28 variant 2 (Q6UW56 1-284 isoform Q6UW56-3): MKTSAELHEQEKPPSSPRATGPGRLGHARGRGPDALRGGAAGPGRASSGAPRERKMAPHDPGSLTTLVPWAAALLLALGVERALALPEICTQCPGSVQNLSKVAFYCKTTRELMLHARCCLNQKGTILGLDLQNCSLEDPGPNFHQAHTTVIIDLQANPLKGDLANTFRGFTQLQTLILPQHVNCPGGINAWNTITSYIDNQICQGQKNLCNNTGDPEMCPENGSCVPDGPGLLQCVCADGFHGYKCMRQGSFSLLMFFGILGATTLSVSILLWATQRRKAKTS

With `CNc1ccc2oc(C[C@H]3O[C@@]4(CC[C@H]3C)O[C@H]([C@H](C)C(=O)c3ccc[nH]3)[C@H](C)C[C@H]4C)nc2c1C(=O)O` [A23187] the “A23187-induced NFATc1 gene expression” value (NFATc1 mRNA) was “defective”.

For `NCCCC(O)(P(=O)(O)O)P(=O)(O)O` [Alendronate], the Anti-proliferative effects (HEK-293T) was “strong resistance”, the “Vitamin D stimulated osteoclastogenesis (TRAP activity)” value (RAW 264.7 macrophages [1]; ST-2 cells treated with 100 nM Vitamin D and Alendronate, co-cultured with RAW 264.7 macrophages) was “reduced TRAP activity” and the “RANKL mRNA induction by Vitamin D” value ([2]; wild-type ST-2 cells, 100 nM Vitamin D plus increasing concentration of Alendronate, vs control) was “impaired RANKL mRNA induction by Vitamin D, in a dose dependent fashion”. The “Cell viability (cellular ATP, ratio to untreated cells)” value (KBM7 cells; C2orf28_GT2 cells expressing C2orf28 variant 2 lacking the transmembrane domain, 0, 60 or 9004, 72 hours) was “resistant”, the “Cell viability (cellular ATP, ratio to untreated cells)” value (KBM7 cells; C2orf28_GT2 cells expressing full-length C2orf28 variant 2, 0, 60 or 9004, 72 hours) was “sensitive” and the “Cell viability (cellular ATP, ratio to untreated cells)” value (KBM7 cells; C2orf28 mutant cells with exogenous C2orf28 variant 2 or variant 3, 60 μM, 72 hours) was “as sensitive to Alendronate as wild-type KBM7 cells”. The “Relative TBONE mRNA expression” value (MC3T3-e1 cells; GFP control cells, 10 nM Alendronate vs vehicle) was “increase in relative TBONE expression”, the “NBP-stimulated gene expression of bone sialoprotein (BSP)” value (MC3T3-e1 cells; [7]) was “fail to demonstrate an increase in basal or NBP-stimulated gene expression” and the “NBP-stimulated gene expression of osteocalcin (OC)” value (MC3T3-e1 cells; [7]) was “fail to demonstrate an increase in basal or NBP-stimulated gene expression”. For the same molecule, the “NBP-stimulated induction of TBONE mRNA” value (MC3T3-e1 cells; TBONE knockdown cells (TBONE—1 and TBONE—2), 10 nM Alendronate) was “fail to demonstrate a NBP-stimulated induction of TBONE”, the “Colocalization of Alendronate and C2orf28 co-staining” value [3] was “high degree of colocalization” and the HDJ-2 prenylation (HDJ-2 prenylation; [8]) was “no effect”. For the same molecule, the HDJ-2 prenylation (HDJ-2 prenylation; cells containing C2orf28 (WT)) was “impaired both HDJ-2 and Rapla prenylation in a dose dependent manner”, the Rapla prenylation (Rapla prenylation; [8]) was “no effect” and the Rapla prenylation (Rapla prenylation; cells containing C2orf28 (WT)) was “impaired both HDJ-2 and Rapla prenylation in a dose dependent manner”. The “Cellular Alendronate accumulation” value [4] was “altered cellular Alendronate accumulation” and the “NBP-stimulated ALPL (alkaline phosphatase activity)” value [5] was “fail to demonstrate an increase in basal or NBP-stimulated gene expression”.

With Vitamin D the “Vitamin D stimulated osteoclastogenesis (TRAP activity)” value (RAW 264.7 macrophages [1]; TBONE knockdown ST-2 cells co-cultured with RAW 264.7 macrophages, 100 nM Vitamin D) was “largely blocked” and the “RANKL mRNA induction by Vitamin D” value ([2]; TBONE knockdown ST-2 cells (TBONE—1 and TBONE—2) vs GFP control, 100 nM Vitamin D) was “impaired RANKL mRNA induction”.

B1: RANKL: regulatory molecule stimulating osteoclast differentiation and function (protein, UniProt O14788 140-317, looked up)
Tumor necrosis factor ligand …: IRAEKAMVDGSWLDLAKRSKLEAQPFAHLTINATDIPSGSHKVSLSSWYHDRGWAKISNMTFSNGKLIVNQDGFYYLYANICFRHHETSGDLATEYLQLMVYVTKTSIKIPSSHTLMKGGSTKYWSGNSEFHFYSINVGGFFKLRSGEEISIEVSNPSLLDPDQDATYFGAFKVRDID
With B1 the “RANKL-mediated TRAP activity” value (RAW 264.7 macrophages [6]) was “strongly impairs”.
